Source: ChEMBL document CHEMBL1138196, “Antitrypanosomal activity of 5'-deoxy-5'-(iodomethylene)adenosine and related 6-N-cyclopropyladenosine analogues” (J Med Chem, 2006)
≈ marks a conversion by molar mass, not a printed value.

Experiments:
Trypanosoma brucei = assay: Antitrypanosomal activity against Trypanosoma brucei; format: functional, organism-based
[1] = system: Vesicular stomatitis virus; assay: Antiviral activity against VSV in BHK cells; format: functional, organism-based

Nc1ncnc2c1ncn2[C@@H]1O[C@H](CSCCO)[C@@H](O)[C@H]1O
IC50 (Trypanosoma brucei): 0.16 µg/mL (≈ 0.489 µM)

Nc1ncnc2c1ncn2[C@@H]1O[C@H](/C=C\I)[C@@H](O)[C@H]1O
IC50 (Trypanosoma brucei): 45 µg/mL (≈ 116 µM)

CC(=O)OCCSC[C@H]1O[C@@H](n2cnc3c(N)ncnc32)[C@H](OC(C)=O)[C@@H]1OC(C)=O
IC50 (Trypanosoma brucei): 0.12 µg/mL (≈ 0.265 µM)

Nc1ncnc2c1ncn2[C@@H]1O[C@](S)(CO)[C@@H](O)[C@H]1O
IC50 (Trypanosoma brucei): 14 µg/mL (≈ 46.8 µM)

O[C@@H]1[C@H](O)[C@@H](/C=C/F)O[C@H]1n1cnc2c(NC3CC3)ncnc21
IC50 (Trypanosoma brucei): 19 µg/mL (≈ 59.1 µM)

O[C@@H]1[C@H](O)[C@@H](/C=C/I)O[C@H]1n1cnc2c(NC3CC3)ncnc21
IC50 (Trypanosoma brucei): 12 µg/mL (≈ 28 µM)

Nc1ncnc2c1ncn2[C@@H]1O[C@H](/C=C/I)[C@@H](O)[C@H]1O
IC50 [1]: 2 µg/mL (≈ 5.14 µM) | IC50 (Trypanosoma brucei): 9 µg/mL (≈ 23.1 µM)

CN(C/C=C\CN)C[C@H]1O[C@@H](n2cnc3c(N)ncnc32)[C@H](O)[C@@H]1O
IC50 (Trypanosoma brucei): 0.02 µg/mL (≈ 0.0572 µM)

N#C/N=C/[C@H]1O[C@@H](n2cnc3c(NC4CC4)ncnc32)[C@H](O)[C@@H]1O
IC50 (Trypanosoma brucei): 19 µg/mL (≈ 57.7 µM)
